pIC50: −log10 of the molar value. In brackets after ≈: the same amount, converted by molar mass.
How the values were obtained:
[1] = system: Staphylococcus aureus; assay: Antimicrobial activity against Staphylococcus aureus assessed as bacterial growth inhibition; assay type: functional
[2] = system: Micrococcus luteus; assay: Antimicrobial activity against Micrococcus luteus assessed as bacterial growth inhibition; assay type: functional
[3] = system: Staphylococcus saprophyticus; assay: Antimicrobial activity against Staphylococcus saprophyticus assessed as bacterial growth inhibition; assay type: functional
[4] = system: Staphylococcus epidermidis; assay: Antimicrobial activity against Staphylococcus epidermidis assessed as bacterial growth inhibition; assay type: functional
[5] = system: Bacillus subtilis; assay: Antimicrobial activity against Bacillus subtilis assessed as bacterial growth inhibition; assay type: functional
[6] = system: Escherichia coli; assay: Antimicrobial activity against Escherichia coli assessed as bacterial growth inhibition; assay type: functional
[7] = system: Klebsiella oxytoca; assay: Antimicrobial activity against Klebsiella oxytoca assessed as bacterial growth inhibition; assay type: functional
[8] = system: Proteus vulgaris; assay: Antimicrobial activity against Proteus vulgaris assessed as bacterial growth inhibition; assay type: functional
[9] = system: Proteus mirabilis; assay: Antimicrobial activity against Proteus mirabilis assessed as bacterial growth inhibition; assay type: functional
[10] = system: Citrobacter freundii; assay: Antimicrobial activity against Citrobacter freundii assessed as bacterial growth inhibition; assay type: functional
[11] = system: Pseudomonas aeruginosa; assay: Antimicrobial activity against Pseudomonas aeruginosa assessed as bacterial growth inhibition; assay type: functional
[12] = system: Candida albicans; assay: Antimicrobial activity against Candida albicans assessed as bacterial growth inhibition; assay type: functional
[13] = system: Mycolicibacterium phlei; assay: Antimicrobial activity against Mycobacterium phlei assessed as bacterial growth inhibition; assay type: functional
[14] = biological target: T1, Type-1 angiotensin II receptor A (Rattus norvegicus, UniProt P25095); assay: Inhibition of rat adrenal cortex angiotensin II; assay type: tissue-based
T1 sequence (P25095 whole entry): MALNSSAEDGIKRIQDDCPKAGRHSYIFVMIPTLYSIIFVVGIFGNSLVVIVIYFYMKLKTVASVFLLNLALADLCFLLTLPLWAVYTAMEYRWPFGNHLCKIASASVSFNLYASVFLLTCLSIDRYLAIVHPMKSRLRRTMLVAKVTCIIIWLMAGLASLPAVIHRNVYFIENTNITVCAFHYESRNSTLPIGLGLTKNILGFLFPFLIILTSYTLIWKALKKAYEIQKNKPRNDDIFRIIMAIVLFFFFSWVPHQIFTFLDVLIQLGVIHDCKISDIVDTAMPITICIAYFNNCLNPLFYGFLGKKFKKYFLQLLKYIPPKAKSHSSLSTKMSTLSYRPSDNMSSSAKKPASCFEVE

[15] = system: Rattus norvegicus; assay: Inhibition of AII induced mean arterial blood pressure in rat assessed as vasoconstrictor at 5 mg/kg, po; assay type: functional
[16] = biological target: T2, Type-2 angiotensin II receptor (Rattus norvegicus, UniProt P35351); assay: Binding affinity to AT2 in rat brain; assay type: tissue-based
T2 sequence (P35351 whole entry): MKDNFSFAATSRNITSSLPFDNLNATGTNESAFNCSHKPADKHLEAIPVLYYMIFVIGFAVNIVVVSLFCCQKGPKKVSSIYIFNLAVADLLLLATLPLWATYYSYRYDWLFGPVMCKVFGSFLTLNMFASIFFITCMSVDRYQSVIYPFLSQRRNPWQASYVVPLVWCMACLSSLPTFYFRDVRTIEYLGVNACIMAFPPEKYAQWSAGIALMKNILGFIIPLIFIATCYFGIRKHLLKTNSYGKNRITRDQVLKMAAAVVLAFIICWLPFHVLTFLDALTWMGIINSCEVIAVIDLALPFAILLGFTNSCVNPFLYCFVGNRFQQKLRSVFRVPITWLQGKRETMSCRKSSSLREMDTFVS

[17] = system: Rattus norvegicus; assay: Inhibition of AII induced rat assessed as vasoconstrictor at 15 mg/kg, iv; assay type: functional
[18] = system: Fusarium oxysporum; assay: Antifungal activity against Fusarium oxysporum assessed as bacterial growth inhibition at 50 ug/ml incubated for 5 days relative to control; assay type: functional; conditions: 120 h, time 5 day
[19] = system: Fusarium graminearum; assay: Antifungal activity against Gibberella zeae assessed as bacterial growth inhibition at 50 ug/ml incubated for 5 days relative to control; assay type: functional; conditions: 120 h, time 5 day
[20] = system: Cytospora mali; assay: Antifungal activity against Valsa mali assessed as bacterial growth inhibition at 50 ug/ml incubated for 5 days relative to control; assay type: functional; conditions: 120 h, time 5 day
[21] = system: Rattus norvegicus; assay: Inhibition of AII induced mean arterial blood pressure in rat assessed as vasoconstrictor at 1 mg/kg, po; assay type: functional

O=c1c2ccc(Cl)cc2nc(/C=C/c2ccccc2[N+](=O)[O-])n1-c1ccc(O)cc1
MIC [1]: 125 µg/mL (≈ 298 µM)
MIC [2]: 125 µg/mL (≈ 298 µM)
MIC [3]: 125 µg/mL (≈ 298 µM)
MIC [4]: 125 µg/mL (≈ 298 µM)
MIC [5]: 125 µg/mL (≈ 298 µM)
MIC [6]: 125 µg/mL (≈ 298 µM)
MIC [7]: 125 µg/mL (≈ 298 µM)
MIC [8]: 125 µg/mL (≈ 298 µM)
MIC [9]: 125 µg/mL (≈ 298 µM)
MIC [10]: 125 µg/mL (≈ 298 µM)
MIC [11]: 125 µg/mL (≈ 298 µM)
MIC [12]: 125 µg/mL (≈ 298 µM)
MIC [13]: 125 µg/mL (≈ 298 µM)

CCCCc1nc2ccc(COC)cc2c(=O)n1Cc1ccc(-c2ccccc2-c2nn[nH]n2)cc1
pIC50 [14]: < 6.00
Activity [15]: 65 mmHg

CCCCc1nc2ccc(C(C)O)cc2c(=O)n1Cc1ccc(-c2ccccc2-c2nn[nH]n2)cc1 (centres undefined)
pIC50 [14]: 8.30
Activity [15]: 65 mmHg

CCCc1nc2ccc(N(Cc3ccccc3)C(=O)OC(C)(C)C)cc2c(=O)n1Cc1ccc(-c2ccccc2-c2nnn[nH]2)cc1
pIC50 [16]: 9.34

CCCCc1nc2ccc(C(C)OC)cc2c(=O)n1Cc1ccc(-c2ccccc2-c2nn[nH]n2)cc1 (centres undefined)
pIC50 [14]: 7.74
Activity [15]: 65 mmHg

CCCCC1N(Cc2ccc(-c3ccccc3-c3nn[nH]n3)cc2)C(=O)c2ccccc2N1C (centres undefined)
pIC50 [14]: 4.85
inhibition in vivo at 15 mg/kg [17]: 88%

CCCCc1nc2ccc(C(O)CO)cc2c(=O)n1Cc1ccc(-c2ccccc2-c2nn[nH]n2)cc1 (centres undefined)
pIC50 [14]: < 6.00
Activity [15]: 65 mmHg

CC(C)c1nc2ccc(N(Cc3ccccc3)C(=O)c3ccccc3)cc2c(=O)n1Cc1ccc(-c2ccccc2-c2nnn[nH]2)cc1
pIC50 [16]: 9.66

CCc1nc2ccc(N(CC=C(C)C)C(=O)c3ccccc3)cc2c(=O)n1Cc1ccc(-c2ccccc2-c2nn[nH]n2)cc1
pIC50 [16]: 9.34

Cc1cc(O)no1 [HYMEXAZOL]
inhibition at 50 µg/mL [18]: 55.4%
inhibition at 50 µg/mL [19]: 50.4%
inhibition at 50 µg/mL [20]: 22.5%

CCCCCN(C(=O)c1ccccc1)c1ccc2nc(CCC)n(Cc3ccc(-c4ccccc4-c4nn[nH]n4)cc3)c(=O)c2c1
pIC50 [16]: 9.00

CCCCc1nc2ccc(C(C)NC(C)=O)cc2c(=O)n1Cc1ccc(-c2ccccc2-c2nn[nH]n2)cc1 (centres undefined)
pIC50 [14]: < 6.00
Activity [15]: 65 mmHg

CCCC1Nc2ccc(C(C)C)cc2C(=O)N1Cc1ccc(-c2ccccc2-c2nn[nH]n2)cc1 (centres undefined)
pIC50 [14]: 7.30
inhibition in vivo at 15 mg/kg [17]: 88%

CCCC1N(Cc2ccc(-c3ccccc3-c3nn[nH]n3)cc2)C(=O)c2ccccc2N1C (centres undefined)
pIC50 [14]: 6.27
inhibition in vivo at 15 mg/kg [17]: 88%

Cc1nc2ccc(N(Cc3ccccc3)C(=O)c3ccccc3)cc2c(=O)n1Cc1ccc(-c2ccccc2-c2nnn[nH]2)cc1
pIC50 [16]: 9.66

CCC1Nc2ccc(C(C)C)cc2C(=O)N1Cc1ccc(-c2ccccc2-c2nn[nH]n2)cc1 (centres undefined)
pIC50 [14]: 7.05
inhibition in vivo at 15 mg/kg [17]: 88%

CCCn1cnc2ccccc2c1=O
inhibition at 50 µg/mL [18]: 4.9%
inhibition at 50 µg/mL [19]: 5.5%
inhibition at 50 µg/mL [20]: 0.9%

CCC1Nc2ccccc2C(=O)N1Cc1ccc(-c2ccccc2-c2nn[nH]n2)cc1 (centres undefined)
pIC50 [14]: 4.35
inhibition in vivo at 15 mg/kg [17]: 88%

CCCCc1nc2ccc([C@]3(CC)C[C@H]4CCCN4O3)cc2c(=O)n1Cc1ccc(-c2ccccc2-c2nn[nH]n2)cc1
Activity [21]: 55 mmHg

CCC1Nc2ccc(C)cc2C(=O)N1Cc1ccc(-c2ccccc2-c2nn[nH]n2)cc1 (centres undefined)
pIC50 [14]: 4.89
inhibition in vivo at 15 mg/kg [17]: 88%

CCCn1cnc2ccc(Br)cc2c1=O
inhibition at 50 µg/mL [18]: 47.2%
inhibition at 50 µg/mL [19]: 55%
inhibition at 50 µg/mL [20]: 0.9%

C=CCn1cnc2ccc(Br)cc2c1=O
inhibition at 50 µg/mL [18]: 4.9%
inhibition at 50 µg/mL [19]: 5.5%
inhibition at 50 µg/mL [20]: 30.4%

CCc1nc2ccc(N(Cc3ccccc3)C(=O)c3ccncc3)cc2c(=O)n1Cc1ccc(-c2ccccc2-c2nn[nH]n2)cc1
pIC50 [16]: 9.66

CCc1nc2ccc(N(Cc3ccccc3Cl)C(=O)c3ccccc3)cc2c(=O)n1Cc1ccc(-c2ccccc2-c2nn[nH]n2)cc1
pIC50 [16]: 9.66

CCCCc1nc2ccc(C(CC)OC)cc2c(=O)n1Cc1ccc(-c2ccccc2-c2nn[nH]n2)cc1 (centres undefined)
pIC50 [14]: 7.74
Activity [15]: 65 mmHg

CCCCc1nc2ccc(C(OC)c3ccccc3)cc2c(=O)n1Cc1ccc(-c2ccccc2-c2nn[nH]n2)cc1 (centres undefined)
pIC50 [14]: < 6.00
Activity [15]: 65 mmHg

— ChEMBL document CHEMBL5260833, “An overview of quinazolines: Pharmacological significance and recent developments” (Eur J Med Chem, 2018)
